According to patent US10897901B2, “Herbicidal composition” (FMC Corporation, priority 2007, dated 2021):

Experiments:
Type in all cases: in vivo
[1] = test system: Yellow Nutsedge (Cyperus esculentus); assay: Example 2 post-emergent turf plot test, nutsedge; details: 0.75 lb ai/acre
Method: (§1) The experimental design used randomized plots with post-emergent treatment and three replications per test trial. The size of each experimental plot was 4 feet by 6 feet. The application of each test composition was performed with pressurized back-pack sprayers, calibrated to spray 200 gallons per acre. Test compositions containing sulfentrazone (DISMISS™ Turf Herbicide), quinclorac, (FACET® 75 DF herbicide) or a mixture of sulfentrazone and quinclorac in a one to three ratio, prepared as described above, were diluted with water to provide the appropriate test rate concentrations.
(§2) The control of weeds was evaluated in each experimental plot from 1 to 27 days after treatment (DAT) of each test rate. The results, shown as an average of the replications, were compared with results observed in untreated control plots in the same trials.

[2] = test system: Red River crabgrass (Digitaria ciliaris); assay: Example 3 post-emergence greenhouse pot test, crabgrass
Method: (§3) Test compositions containing sulfentrazone (DISMISS™ Turf Herbicide), quniclorac, (DRIVE® 75 DF Herbicide) or mixture of sulfentrazone and quinclorac in a three to one ratio, prepared as described above, were diluted with water to provide the appropriate test rate concentrations. A nonionic surfactant (0.25%) was added to each test solution.
(§4) The test weeds include Red River crabgrass (Digitaria ciliaris) and yellow nutsedge (Cyperus esculentusi).
(§5) For post-emergence testing, three disposable 3 inch square pots for each rate of application of each herbicide were filled with a soil, comprised of peat moss, vermiculite, bark ash, pine bark, limestone and a wetting agent, to which 8 to 10 seeds were planted. The pots were placed in a greenhouse and watered daily, thus allowing the seeds to germinate and the foliage to develop.
(§6) Pots designated for treatment were placed on a conveyor belt and the conveyor belt fed under a spray nozzle mounted about ten inches above the foliage. The spray of herbicidal solution was commenced and once stabilized; the pots were passed under the spray at a speed to receive a coverage equivalent of 30 gallons per acre. The application rates are those shown in Table 3 below for the individual herbicidal solutions and the mixture of sulfentrazone and quinclorac. The post-emergence pots were immediately placed in the green-house and not watered until 24 hours after treatment with the test solution. Thereafter they were regularly watered at ground level. The control of weeds was evaluated in each experimental test from 1 to 22 days after treatment (DAT). The results, shown as an average of the replications, were compared with results observed in untreated control pots in the same tests.
(§7) Percent control was determined by a method similar to the 0 to 100 rating system disclosed in “Research Methods in Weed Science,” 2nd ed., B. Truelove, Ed.; Southern Weed Science Society; Auburn University, Auburn, Ala., 1977.

[3] = test system: White Clover (Trifolium repens); assay: Example 1 post-emergent turf plot test, clover; details: 0.75 lb ai/acre
Method: as §1, with “quniclorac,” for “quinclorac,”, “1:3” for “one to three”
The control of weeds was evaluated in each experimental plot from 7 to 41 days after treatment (DAT) of each test rate. The results, shown as an average of the replications, were compared with results observed in untreated control plots in the same trials.

[4] = test system: Field Violet (Viola arvensis); assay: Example 2 post-emergent turf plot test, violet; details: 0.75 lb ai/acre
Method: as §1, §2

[5] = test system: yellow nutsedge (Cyperus esculentusi); assay: Example 3 post-emergence greenhouse pot test, nutsedge
Method: as §3, §4, §5, §6, §7

## O=C(O)c1c(Cl)ccc2cc(Cl)cnc12 [B, 3,7-dichloro-8-quinolinecarboxylic acid]
[1]; 7 DAT
  Percent Control: 83%
[1]; 14 DAT
  Percent Control: 54%
[1]; 21 DAT
  Percent Control: 37%
[2]; 1-2 leaf stage, 11 days old, 0.375 lb ai/acre, 1 DAT
  Percent Control: 0%
[2]; 1-2 leaf stage, 11 days old, 0.375 lb ai/acre, 3 DAT
  Percent Control: 5%
[2]; 1-2 leaf stage, 11 days old, 0.375 lb ai/acre, 7 DAT
  Percent Control: 5%
[2]; 1-2 leaf stage, 11 days old, 0.375 lb ai/acre, 14 DAT
  Percent Control: 0%
[2]; 1-2 leaf stage, 11 days old, 0.375 lb ai/acre, 21 DAT
  Percent Control: 0%
[2]; 1-2 leaf stage, 11 days old, 0.75 lb ai/acre, 1 DAT
  Percent Control: 0%
[2]; 1-2 leaf stage, 11 days old, 0.75 lb ai/acre, 3 DAT
  Percent Control: 10%
[2]; 1-2 leaf stage, 11 days old, 0.75 lb ai/acre, 7 DAT
  Percent Control: 5%
[2]; 1-2 leaf stage, 11 days old, 0.75 lb ai/acre, 14 DAT
  Percent Control: 0%
[2]; 1-2 leaf stage, 11 days old, 0.75 lb ai/acre, 21 DAT
  Percent Control: 0%
[2]; 1-2 leaf stage, 11 days old, 1.0 lb ai/acre, 1 DAT
  Percent Control: 0%
[2]; 1-2 leaf stage, 11 days old, 1.0 lb ai/acre, 3 DAT
  Percent Control: 10%
[2]; 1-2 leaf stage, 11 days old, 1.0 lb ai/acre, 7 DAT
  Percent Control: 10%
[2]; 1-2 leaf stage, 11 days old, 1.0 lb ai/acre, 14 DAT
  Percent Control: 2%
[2]; 1-2 leaf stage, 11 days old, 1.0 lb ai/acre, 21 DAT
  Percent Control: 2%
[2]; 3-4 leaf stage, 1-2 tillers, 14 days old, 0.375 lb ai/acre, 1 DAT
  Percent Control: 0%
[2]; 3-4 leaf stage, 1-2 tillers, 14 days old, 0.375 lb ai/acre, 3 DAT
  Percent Control: 5%
[2]; 3-4 leaf stage, 1-2 tillers, 14 days old, 0.375 lb ai/acre, 7 DAT
  Percent Control: 5%
[2]; 3-4 leaf stage, 1-2 tillers, 14 days old, 0.375 lb ai/acre, 14 DAT
  Percent Control: 0%
[2]; 3-4 leaf stage, 1-2 tillers, 14 days old, 0.375 lb ai/acre, 21 DAT
  Percent Control: 0%
[2]; 3-4 leaf stage, 1-2 tillers, 14 days old, 0.75 lb ai/acre, 1 DAT
  Percent Control: 0%
[2]; 3-4 leaf stage, 1-2 tillers, 14 days old, 0.75 lb ai/acre, 3 DAT
  Percent Control: 5%
[2]; 3-4 leaf stage, 1-2 tillers, 14 days old, 0.75 lb ai/acre, 7 DAT
  Percent Control: 5%
[2]; 3-4 leaf stage, 1-2 tillers, 14 days old, 0.75 lb ai/acre, 14 DAT
  Percent Control: 5%
[2]; 3-4 leaf stage, 1-2 tillers, 14 days old, 0.75 lb ai/acre, 21 DAT
  Percent Control: 0%
[2]; 3-4 leaf stage, 1-2 tillers, 14 days old, 1.0 lb ai/acre, 1 DAT
  Percent Control: 0%
[2]; 3-4 leaf stage, 1-2 tillers, 14 days old, 1.0 lb ai/acre, 3 DAT
  Percent Control: 5%
[2]; 3-4 leaf stage, 1-2 tillers, 14 days old, 1.0 lb ai/acre, 7 DAT
  Percent Control: 10%
[2]; 3-4 leaf stage, 1-2 tillers, 14 days old, 1.0 lb ai/acre, 14 DAT
  Percent Control: 5%
[2]; 3-4 leaf stage, 1-2 tillers, 14 days old, 1.0 lb ai/acre, 21 DAT
  Percent Control: 5%
[3]; 7 DAT
  Percent Control: 50%
[3]; 14 DAT
  Percent Control: 50%
[3]; 21 DAT
  Percent Control: 50%
[3]; 28 DAT
  Percent Control: 63%
[4]; 7 DAT
  Percent Control: 46%
[4]; 14 DAT
  Percent Control: 48%
[4]; 21 DAT
  Percent Control: 51%
[5]; 1-5 leaf stage, 7 days old, 0.375 lb ai/acre, 1 DAT
  Percent Control: 0%
[5]; 1-5 leaf stage, 7 days old, 0.375 lb ai/acre, 3 DAT
  Percent Control: 0%
[5]; 1-5 leaf stage, 7 days old, 0.375 lb ai/acre, 7 DAT
  Percent Control: 0%
[5]; 1-5 leaf stage, 7 days old, 0.375 lb ai/acre, 14 DAT
  Percent Control: 0%
[5]; 1-5 leaf stage, 7 days old, 0.375 lb ai/acre, 21 DAT
  Percent Control: 0%
[5]; 1-5 leaf stage, 7 days old, 0.75 lb ai/acre, 1 DAT
  Percent Control: 0%
[5]; 1-5 leaf stage, 7 days old, 0.75 lb ai/acre, 3 DAT
  Percent Control: 0%
[5]; 1-5 leaf stage, 7 days old, 0.75 lb ai/acre, 7 DAT
  Percent Control: 0%
[5]; 1-5 leaf stage, 7 days old, 0.75 lb ai/acre, 14 DAT
  Percent Control: 0%
[5]; 1-5 leaf stage, 7 days old, 0.75 lb ai/acre, 21 DAT
  Percent Control: 0%
[5]; 1-5 leaf stage, 7 days old, 1.0 lb ai/acre, 1 DAT
  Percent Control: 0%
[5]; 1-5 leaf stage, 7 days old, 1.0 lb ai/acre, 3 DAT
  Percent Control: 0%
[5]; 1-5 leaf stage, 7 days old, 1.0 lb ai/acre, 7 DAT
  Percent Control: 0%
[5]; 1-5 leaf stage, 7 days old, 1.0 lb ai/acre, 14 DAT
  Percent Control: 0%
[5]; 1-5 leaf stage, 7 days old, 1.0 lb ai/acre, 21 DAT
  Percent Control: 0%
[5]; 5-7 leaves, cut to 6 cm tall, 28 days old, 0.375 lb ai/acre, 1 DAT
  Percent Control: 0%
[5]; 5-7 leaves, cut to 6 cm tall, 28 days old, 0.375 lb ai/acre, 3 DAT
  Percent Control: 5%
[5]; 5-7 leaves, cut to 6 cm tall, 28 days old, 0.375 lb ai/acre, 7 DAT
  Percent Control: 5%
[5]; 5-7 leaves, cut to 6 cm tall, 28 days old, 0.375 lb ai/acre, 14 DAT
  Percent Control: 5%
[5]; 5-7 leaves, cut to 6 cm tall, 28 days old, 0.375 lb ai/acre, 21 DAT
  Percent Control: 0%
[5]; 5-7 leaves, cut to 6 cm tall, 28 days old, 0.75 lb ai/acre, 1 DAT
  Percent Control: 0%
[5]; 5-7 leaves, cut to 6 cm tall, 28 days old, 0.75 lb ai/acre, 3 DAT
  Percent Control: 0%
[5]; 5-7 leaves, cut to 6 cm tall, 28 days old, 0.75 lb ai/acre, 7 DAT
  Percent Control: 2%
[5]; 5-7 leaves, cut to 6 cm tall, 28 days old, 0.75 lb ai/acre, 14 DAT
  Percent Control: 2%
[5]; 5-7 leaves, cut to 6 cm tall, 28 days old, 0.75 lb ai/acre, 21 DAT
  Percent Control: 0%
[5]; 5-7 leaves, cut to 6 cm tall, 28 days old, 1.0 lb ai/acre, 1 DAT
  Percent Control: 0%
[5]; 5-7 leaves, cut to 6 cm tall, 28 days old, 1.0 lb ai/acre, 3 DAT
  Percent Control: 5%
[5]; 5-7 leaves, cut to 6 cm tall, 28 days old, 1.0 lb ai/acre, 7 DAT
  Percent Control: 5%
[5]; 5-7 leaves, cut to 6 cm tall, 28 days old, 1.0 lb ai/acre, 14 DAT
  Percent Control: 5%
[5]; 5-7 leaves, cut to 6 cm tall, 28 days old, 1.0 lb ai/acre, 21 DAT
  Percent Control: 0%
